Data as given in patent publication US7442547B2, “Dendritic cells and the uses thereof in screening cellular targets and potential drugs” (Sekmed, S.R.L., priority 2001, dated 2008).

How the values were obtained:
Assay type in all cases: cell-based, mouse
[1] = tested on: DC (D1, D8, BMDC/RAG2−/−); assay: IL-2 production by DC after stimulation in vitro (IL-2 ELISA of supernatant); conditions: splenic (D1) and bone marrow-derived DC (D8, BMDC/RAG2−/−), long- and short-term lines
Experimental: Antibodies and Reagents. LPS (E. Coli 026:B6, used at 10 μg/ml) and zymosan (used at 10 μg/ml) were obtained from Sigma Chem. (St. Louis, Mo.). rTNF, (San Francisco) and rIL-1. (Genzyme, Cambridge Mass.) were used at 100 U/ml and 10 μg/ml respectively. IFN was kindly provided by Schering-Plough (Dardilli, Fr.) and used at 1000 U/ml. CpG ([…])(SEQ ID NO. 5) and CpG control ([…]) (SEQ ID NO. 6) oligos were purchased from Life Technologies and used at a concentration of 1 µM. PE-conjugated anti-IL-2, PE-conjugated rat Isotype control, biotinilated anti-CD8α and FITC-conjugated anti-CD11c monoclonal antibodies were purchased from Pharmingen. Quantum-red-conjugated streptavidin was obtained from Sigma. Anti-I-A^d/I-E^d mAb (clone M5 /114, rat IgG2b) was kindly provided by Dr. A. Ager (NIMR, London, UK). FITC-conjugated anti-rat was from Jackson ImmunoResearch (West Grove, Pa.). Anti-CD40 antibody [clone FGK45 (10)] was used at a concentration of 20 μg/ml and crosslinked with a monoclonal anti-rat antibody (10 μg/ml, PharMingen).
DC and culture medium. D1 and D8.1 long term DC were cultured in IMDM (Sigma, St. Louis, Mo.) containing 10% heat-inactivated fetal bovine serum (GIBCO), 100 IU penicillin, 100 μg/ml streptomycin, 2 mM L-glutamine (all from Sigma), and 50 μM 2-mercaptoethanol (complete IMDM) with 30% supernatant from R1 medium [supernatant from NIH3T3 fibroblasts transfected with GM-CSF].
Fresh BMDCRAG2−/− were derived from RAG2−/− BALB/c or C57BL/6 bone marrow cells. Usually bone marrow cells cultured for two days and frozen. BMDCRAG2−/− were obtained from defrost cells after 7 days of culture in medium containing 10% of supernatant of GM-CSF transduced B16 tumor cells. BMDCRAG2−/− were used for activation only if they were immature, as judged by low B7.2 and CD40 expression.
IL-2 ELISA. IL-2 ELISA was performed using the DuoSet kit (R and D, Minneapolis, Minn.) and following the manufacturer recommendations. […]

D1 cells [2] = assay: Growth of D1 cells after stimulation (number of viable cells)
Text: D1 cells were stimulated either with LPS or TNF-α for the indicated time. The number of viable cells at the indicated time points is expressed as percentage of seeded cells. LPS, LPS-stimulated cells; TNF-α, TNF-α-stimulated cells; NS, non-stimulated cells. Standard deviations of five independent experiments are reported.
(§1) Cells and reagents. The D1 cells were derived from murine splenic DC and maintained in vitro in IMDM supplemented with 30% R1 conditional medium as previously described. LPS (Escherichia coli sero- type 026:B6) was purchased from Sigma Chemical Co. and used at 10 μg/ml. Muriner TNF-α (Genetech Inc., San Francisco. Calif.) was used at 100 U/ml. Cells were grown and harvested at the same time.

D1 cells [3] = assay: Differential gene expression analysis (Mu6500 GeneChip) in LPS- and TNF-α-stimulated versus unstimulated D1 cells; design: key: NC: No change in the level of expression; I: induced (detected only in stimulated cells); U: up-regulated; D: down-regulated; S: suppressed (detected only in unstimulated cells); conditions: no asterisk=fold change, *=AvgDiff after stimulation, **=AvgDiff in baseline
Experimental: as §1
RNA extraction, amplification and labeling for hybridization. Antisense cRNA was prepared following Affymetrix (Santa Clara, Calif.) recommendations. Briefly, mRNA was directly extracted from frozen pellets using the DIRECT OLIGOTEX KIT (i.e., column chromatography kit for mRNA purification) from Qiagen (Chatsworth, Calif.) and converted to double-stranded cDNA using a modified oligo dT primer with a 5′T7 RNA polymerase promoter sequence and the SUPER-SCRIPT CHOICE SYSTEM (i.e., reverse transcriptase system) for cDNA synthesis (Life Technologies, Gaithesbourg, Md.). Double-stranded cDNA (0.5 μg) was transcribed to cRNA with the T7 RNA polymerase (T7 MEGASCRIPT KIT (i.e., phage specific in vitro transcription kit); Ambion, Austin, Tex.) in the presence of a mixture of unlabeled ATP, CTP, GTP, UTP and biotin-labeled CTP and UTP (ENZO Diagnostics, Farmingdale, N.Y.). cRNA was purified on an affinity column (RNEASY (i.e., a RNA purification column); Qiagen).
Probe array hybridization and scanning. The Mu6500 GENECHIP (i.e., DNA microarray) array consists of a set of four individual chips, A-D, collectively representing 6,500 murine genes and ESTs. Analysis of the D1 samples was performed by hybridizing the cRNA to the GENECHIP (i.e., DNA microarray) arrays A-D. Probe array hybridizations were carried out as described. cRNA was fragmented to an average size of 50-200 bases, by incubation for 30 min at 94° C. in 40 mM Tris-acetate pH 8.1, 100 mM potassium acetate and 30 mM magnesium acetate.
Samples were then diluted in the hybridization solution (1 M NaCI, 10 mM Tris pH7.6, 0.005% Triton X-100, 0.1 mg/ml herring sperm DNA, BioB-, BioC-, BioD-, cre- control cRNA at a concentration of 1.5, 5, 25, 100 pM, respectively) at a final concentration of 0.05 μg/ml heated at 94° C. for 5 min and placed in the hybridization cartridge (200 μl/chip). Hybridizations were performed at 40° C. for 16 h. Following hybridization the chips were rinsed with 6× SSPE-T (0.9 M NaCI, 60 mM NaH2PO4, 6 mM EDTA, 0.005% Triton X-100 adjusted to pH 7.6) and 0.5× SSPE-T and stained by incubating with 2 μg/ml streptavidin-phycoerythrin (Molecular Probes, Eugene, Oreg.) and 1 mg/ml acetylated BSA (Sigma, St. Louis, Mo.).
The arrays were read at a resolution of 7.5 μm. using a confocal scanner (Affymetrix) and analyzed with the GENECHIP 3.3 GENE EXPRESSION ANALYSIS PROGRAM (i.e., gene expression analysis software) (Affymetrix).
Gene expression analysis was performed on immature, transitional (6 h LPS and TNF-α-activated) and mature (18 h LPS- and TNF-α-activated) D1 cells using GENECHIP (i.e., DNA microarray) oligonucleotide probe arrays representing approximately 6,500 distinct mouse genes and ESTs. The 6,500 probe sets are subdivided in four individual chips, A-D, each containing oligonucleotide probes for about 1,600 genes and ESTs. The hybridized arrays were analyzed using the GENECHIP 3.3 GENE EXPRESSION ANALYSIS PROGRAM (i.e., gene expression analysis software). Data analysis protocols, sensitivity and quantitative aspects of the method have been previously precisely described. In brief, gene probes are represented by 20 perfectly matched 20-mer oligonucleotides (PM) and 20 control oligonucleotides with a single mismatch (MM). Gene expression levels are defined averaging the differences (AvgDiff) between the PM and MM of every probe pair over the entire probe set:
An AvgDiff of 20 approximates the lower value of fluorescence intensity for detected genes. […]

CpG: oligo DNA containing the unmethylated CpG motif, TCCATGACGTTCCTGATGCT (SEQ ID NO. 5), recognized by TLR9 (listed as DNA, further chemistry not given here)
induction of IL-2 production/secretion by DC [1]: efficient in stimulating DC to secrete IL-2

IL-1 β: inflammatory cytokine (Genzyme)
induction of IL-2 production/secretion by DC [1]: none of the inflammatory cytokines, used individually or added simultaneously to DC cultures, were able to promote IL-2 secretion

tumor necrosis factor [TNFα]
doubling time of activated D1 cells (D1 cells [2]): 130 h | growth arrest of D1 cells (D1 cells [2]; after stimulation): only a strong proliferation slow down but not a definitive growth arrest | induction of IL-2 production/secretion by DC [1]: none of the inflammatory cytokines, used individually or added simultaneously to DC cultures, were able to promote IL-2 secretion | 1AP3 (Y08026) gene expression, stimulated versus unstimulated D1 cells (D1 cells [3]; 6 h): NC | BTG1 (L16846) gene expression, stimulated versus unstimulated D1 cells (D1 cells [3]; 6 h): NC | BTG3 (Z72000) gene expression, stimulated versus unstimulated D1 cells (D1 cells [3]; 6 h): NC | CD14 (M34510) gene expression, stimulated versus unstimulated D1 cells (D1 cells [3]; 6 h): NC | CD37 (U18372) gene expression, stimulated versus unstimulated D1 cells (D1 cells [3]; 6 h): NC | CD40 (M833312) gene expression, stimulated versus unstimulated D1 cells (D1 cells [3]; 6 h): NC | CYL-1 (M64403) gene expression, stimulated versus unstimulated D1 cells (D1 cells [3]; 6 h): NC | Clqα (X58861) gene expression, stimulated versus unstimulated D1 cells (D1 cells [3]; 6 h): NC | EtAI (X16151) gene expression, stimulated versus unstimulated D1 cells (D1 cells [3]; 6 h): NC | F4-80 (X93328) gene expression, stimulated versus unstimulated D1 cells (D1 cells [3]; 6 h): NC | GAS (U19860) gene expression, stimulated versus unstimulated D1 cells (D1 cells [3]; 6 h): NC | H-2Mα (U35323) gene expression, stimulated versus unstimulated D1 cells (D1 cells [3]; 6 h): NC | H-2Mβ1 (U35323) gene expression, stimulated versus unstimulated D1 cells (D1 cells [3]; 6 h): NC | I-Aα (K01923) gene expression, stimulated versus unstimulated D1 cells (D1 cells [3]; 6 h): NC | I-Aβ (V01527) gene expression, stimulated versus unstimulated D1 cells (D1 cells [3]; 6 h): NC | IL-6 (J03783) gene expression, stimulated versus unstimulated D1 cells (D1 cells [3]; 6 h): NC | IL-12p40 (M86671) gene expression, stimulated versus unstimulated D1 cells (D1 cells [3]; 6 h): NC | IL-IRA (M64404) gene expression, stimulated versus unstimulated D1 cells (D1 cells [3]; 6 h): NC | Jaw1 (U10484) gene expression, stimulated versus unstimulated D1 cells (D1 cells [3]; 6 h): NC | Ki-67 (X82786) gene expression, stimulated versus unstimulated D1 cells (D1 cells [3]; 6 h): NC | MIP-1α (M73061) gene expression, stimulated versus unstimulated D1 cells (D1 cells [3]; 6 h): NC | MIP-2 (X53798) gene expression, stimulated versus unstimulated D1 cells (D1 cells [3]; 6 h): NC | Macrostatin (X68273) gene expression, stimulated versus unstimulated D1 cells (D1 cells [3]; 6 h): NC | OX40L (U12763) gene expression, stimulated versus unstimulated D1 cells (D1 cells [3]; 6 h): NC | PA28 (U60329) gene expression, stimulated versus unstimulated D1 cells (D1 cells [3]; 6 h): NC | RCK (D50494) gene expression, stimulated versus unstimulated D1 cells (D1 cells [3]; 6 h): NC | TAP-1cas (M55637) gene expression, stimulated versus unstimulated D1 cells (D1 cells [3]; 6 h): NC | TIS (D86344) gene expression, stimulated versus unstimulated D1 cells (D1 cells [3]; 6 h): NC | TMP (U25633) gene expression, stimulated versus unstimulated D1 cells (D1 cells [3]; 6 h): NC | TSA1 (U47737) gene expression, stimulated versus unstimulated D1 cells (D1 cells [3]; 6 h): NC | c-1AP-I (L49433) gene expression, stimulated versus unstimulated D1 cells (D1 cells [3]; 6 h): NC | cyclin A (Z26580) gene expression, stimulated versus unstimulated D1 cells (D1 cells [3]; 6 h): NC | cyclin B1 (X64713) gene expression, stimulated versus unstimulated D1 cells (D1 cells [3]; 6 h): NC | cyclin B2 (X66032) gene expression, stimulated versus unstimulated D1 cells (D1 cells [3]; 6 h): NC | cyclin D2 (M83749) gene expression, stimulated versus unstimulated D1 cells (D1 cells [3]; 6 h): NC | serum amyloid (X03505) gene expression, stimulated versus unstimulated D1 cells (D1 cells [3]; 6 h): NC | βig-h3 (L19932) gene expression, stimulated versus unstimulated D1 cells (D1 cells [3]; 6 h): NC | BTG1 (L16846) gene expression, stimulated versus unstimulated D1 cells (D1 cells [3]; 18 h): NC | CD14 (M34510) gene expression, stimulated versus unstimulated D1 cells (D1 cells [3]; 18 h): NC | CD37 (U18372) gene expression, stimulated versus unstimulated D1 cells (D1 cells [3]; 18 h): NC | CYL-1 (M64403) gene expression, stimulated versus unstimulated D1 cells (D1 cells [3]; 18 h): NC | Clqα (X58861) gene expression, stimulated versus unstimulated D1 cells (D1 cells [3]; 18 h): NC | F4-80 (X93328) gene expression, stimulated versus unstimulated D1 cells (D1 cells [3]; 18 h): NC | GAS (U19860) gene expression, stimulated versus unstimulated D1 cells (D1 cells [3]; 18 h): NC | H-2Mα (U35323) gene expression, stimulated versus unstimulated D1 cells (D1 cells [3]; 18 h): NC | H-2Mβ1 (U35323) gene expression, stimulated versus unstimulated D1 cells (D1 cells [3]; 18 h): NC | I-Aα (K01923) gene expression, stimulated versus unstimulated D1 cells (D1 cells [3]; 18 h): NC | I-Aβ (V01527) gene expression, stimulated versus unstimulated D1 cells (D1 cells [3]; 18 h): NC | IL-6 (J03783) gene expression, stimulated versus unstimulated D1 cells (D1 cells [3]; 18 h): NC | IL-12p40 (M86671) gene expression, stimulated versus unstimulated D1 cells (D1 cells [3]; 18 h): NC | IL-IRA (M64404) gene expression, stimulated versus unstimulated D1 cells (D1 cells [3]; 18 h): NC | MIP-1α (M73061) gene expression, stimulated versus unstimulated D1 cells (D1 cells [3]; 18 h): NC | MIP-2 (X53798) gene expression, stimulated versus unstimulated D1 cells (D1 cells [3]; 18 h): NC | Macrostatin (X68273) gene expression, stimulated versus unstimulated D1 cells (D1 cells [3]; 18 h): NC | OX40L (U12763) gene expression, stimulated versus unstimulated D1 cells (D1 cells [3]; 18 h): NC | PA28 (U60329) gene expression, stimulated versus unstimulated D1 cells (D1 cells [3]; 18 h): NC | RCK (D50494) gene expression, stimulated versus unstimulated D1 cells (D1 cells [3]; 18 h): NC | TAP-1cas (M55637) gene expression, stimulated versus unstimulated D1 cells (D1 cells [3]; 18 h): NC | TIS (D86344) gene expression, stimulated versus unstimulated D1 cells (D1 cells [3]; 18 h): NC | TSA1 (U47737) gene expression, stimulated versus unstimulated D1 cells (D1 cells [3]; 18 h): NC | cyclin A (Z26580) gene expression, stimulated versus unstimulated D1 cells (D1 cells [3]; 18 h): NC | cyclin D2 (M83749) gene expression, stimulated versus unstimulated D1 cells (D1 cells [3]; 18 h): NC | mMCM2 (D86725) gene expression, stimulated versus unstimulated D1 cells (D1 cells [3]; 18 h): NC | properdin (X12905) gene expression, stimulated versus unstimulated D1 cells (D1 cells [3]; 18 h): NC | βig-h3 (L19932) gene expression, stimulated versus unstimulated D1 cells (D1 cells [3]; 18 h): NC
